Consider 19 molecules from patent US20140187559A1, “INHIBITORS OF THE FIBROBLAST GROWTH FACTOR RECEPTOR” (BLUEPRINT MEDICINES CORPORATION, priority 2012, published 2014).

The subject of one series is Hep3B xenograft tumors. Description: Hep3B liver cancer cell subcutaneous xenograft model, tumor volume. Type of series: in vivo, Mus Musculus. The protocol:
[…] female nude mice (Mus Musculus) age 6 to 8 weeks were used. Tumor cell culture and inoculation: Hep3B cells were cultured with EMEM medium (Invitrogen, USA) supplemented with 10% FBS (Gibco, Australia). The cells were harvested in 90% confluence, and the viability was no less than 90%. Mice were implanted subcutaneously (s.c.) with 200 μL of 10×10^6 Hep3B cells in 50% Matrigel in the right flank at the beginning of the study.
Animal grouping and dosing schedule: Ten days after cell implantation, when tumors reached an average volume of 199 mm^3, 45 mice were selected based on tumor volume and randomly assigned to 5 treatment groups (n=9). The day of randomization was denoted as D0 and the treatment was started from then on.
(§1) Tumor volume and body weight measurements: Tumor size was measured twice per week in two dimensions using a caliper, and the volume was expressed in mm^3 using the formula: V=0.5 a×b^2 where a and b were the long and short diameters of the tumor, respectively. Body weight was measured at least twice weekly.
End of in vivo portion: Blood, tumors and livers were collected from 3 mice in each treated group at 4, 12 and 24 hours after the last dose. The left lobe of the liver was collected for pharmacodynamic (PD) studies, and the rest of the liver was stored in formalin for histology. The small tumors were prioritized for use in pharmacokinetic studies. Any remaining tumor was fixed for histological analysis first, and then was snap-frozen for the PD study.

In a further series the test system is Hep3B cells. Description: Induction of apoptosis (Caspase-Glo3/7) in Hep3B cells. Type of series: cell-based. To be noted: 6 hours, FIG. 3. The method, then:
Hep3B cells were seeded at 20 k/well in 96-well white plates in 200 ul of DMEM/5% FBS overnight. The next day compound was added at a final DMSO concentration of 0.1% and incubated for 6 hours. Caspase activity was measured according to manufacture instruction (Caspase-Glo3/7 Assay (Promega)). Briefly, 100 ul of Caspase-Glo3/7 reagent was added to each well and incubated for 1 hour in the dark. Luminescence was measured using EnVision.

A further series concerns the target T1, wild type FGFR-4 (Homo sapiens, UniProt P22455).
T1 construct: purchased Carna Biosciences, Inc
As to the kind of experiment: FGFR-4 wild type assay at Km (Caliper mobility shift). Type of series: biochemical. To be noted: for IC50: 400 uM ATP, 25 C, 90 minutes, read-out: FGFR4 IC50; for Ratio FGFR1/FGFR4: [IC50 for FGFR1]/[IC50 for FGFR4]. The protocol: (§2) In order to assess the activity of chemical compounds against the relevant kinase of interest, the Caliper LifeSciences electrophoretic mobility shift technology platform is utilized. Fluorescently labeled substrate peptide is incubated in the presence dosed levels of compounds, a set concentration of kinase and of ATP, so that a reflective proportion of the peptide is phosphorylated. At the end of the reaction, the mix of phosphorylated (product) and non-phosphorylated (substrate) peptides are passed through the microfluidic system of the Caliper LabChip® EZ Reader II, under an applied potential difference. The presence of the phosphate group on the product peptide provides a difference in mass and charge between the product peptide and the substrate peptide, resulting in a separation of the substrate and product pools in the sample. As the pools pass the LEDS within the instrument, these pools are detected and resolved as separate peaks. The ratio between these peaks therefore reflects the activity of the chemical matter at that concentration in that well, under those conditions.
The reaction was stopped by the addition of 70 ul of Stop buffer (100 mM HEPES pH 7.5, 0.015% Brij 35, 35 mM EDTA and 0.2% of Coating Reagent 3 (Caliper Lifesciences)). The plate was then read on a Caliper LabChip® EZ Reader II (protocol settings: —1.9 psi, upstream voltage—700, downstream voltage—3000, post sample sip 35 s).

Another series has as its target T2, wild type FGFR-1 (Homo sapiens, UniProt P11362).
T2 construct: purchased Carna Biosciences, Inc
Description: FGFR-1 wild type assay at Km (Caliper mobility shift). The class given is biochemical. To be noted: 400 uM ATP, 25 C, 90 minutes; read-out: FGFR1 IC50. The method, then:
as §2
The reaction was stopped by the addition of 70 ul of Stop buffer (100 mM HEPES pH 7.5, 0.015% Brij 35, 35 mM EDTA and 0.2% of Coating Reagent 3 (Caliper Lifesciences)). The plate was then read on a Caliper EZReader 2 (protocol settings: —1.9 psi, upstream voltage—700, downstream voltage—3000, post sample sip 35 s).

The format of series [1] is in vivo. To be noted: 100 and 300 mg/kg PO BID, nude mice. The method, then: as §1
Body weight change (%) of Hep3B-bearing nude mice: FIG. 8 is a line graph depicting the body weight change (%) during the entire study period.

Another series has as its target FGFR-4 (Homo sapiens, UniProt P22455). As to the kind of experiment: Crystal structure of compound bound to FGFR-4 (Cys552). The class given is binding. To be noted: FIG. 4, FIG. 5.

T1 sequence (P22455 22-802): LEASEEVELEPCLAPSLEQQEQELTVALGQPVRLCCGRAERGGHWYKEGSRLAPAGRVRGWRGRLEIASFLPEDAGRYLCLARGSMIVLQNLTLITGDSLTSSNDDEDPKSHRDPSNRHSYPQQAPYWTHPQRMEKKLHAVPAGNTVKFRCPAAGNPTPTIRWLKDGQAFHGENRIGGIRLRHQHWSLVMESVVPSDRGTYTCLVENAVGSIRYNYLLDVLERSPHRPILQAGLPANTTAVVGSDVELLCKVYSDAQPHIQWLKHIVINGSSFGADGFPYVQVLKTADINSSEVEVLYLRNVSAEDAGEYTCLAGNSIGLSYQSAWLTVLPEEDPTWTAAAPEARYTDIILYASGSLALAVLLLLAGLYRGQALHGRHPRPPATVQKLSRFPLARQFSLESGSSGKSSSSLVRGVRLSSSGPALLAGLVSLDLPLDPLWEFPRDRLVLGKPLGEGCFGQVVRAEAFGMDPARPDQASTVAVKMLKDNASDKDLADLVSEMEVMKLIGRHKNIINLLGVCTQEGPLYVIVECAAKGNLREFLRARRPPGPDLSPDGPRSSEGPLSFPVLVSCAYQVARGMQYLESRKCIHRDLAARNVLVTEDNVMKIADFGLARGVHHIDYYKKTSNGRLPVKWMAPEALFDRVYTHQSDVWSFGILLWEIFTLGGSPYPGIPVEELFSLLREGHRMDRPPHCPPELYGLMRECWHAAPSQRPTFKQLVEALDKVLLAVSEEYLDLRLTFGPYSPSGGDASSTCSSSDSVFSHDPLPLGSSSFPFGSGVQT
T2 sequence (P11362 22-822): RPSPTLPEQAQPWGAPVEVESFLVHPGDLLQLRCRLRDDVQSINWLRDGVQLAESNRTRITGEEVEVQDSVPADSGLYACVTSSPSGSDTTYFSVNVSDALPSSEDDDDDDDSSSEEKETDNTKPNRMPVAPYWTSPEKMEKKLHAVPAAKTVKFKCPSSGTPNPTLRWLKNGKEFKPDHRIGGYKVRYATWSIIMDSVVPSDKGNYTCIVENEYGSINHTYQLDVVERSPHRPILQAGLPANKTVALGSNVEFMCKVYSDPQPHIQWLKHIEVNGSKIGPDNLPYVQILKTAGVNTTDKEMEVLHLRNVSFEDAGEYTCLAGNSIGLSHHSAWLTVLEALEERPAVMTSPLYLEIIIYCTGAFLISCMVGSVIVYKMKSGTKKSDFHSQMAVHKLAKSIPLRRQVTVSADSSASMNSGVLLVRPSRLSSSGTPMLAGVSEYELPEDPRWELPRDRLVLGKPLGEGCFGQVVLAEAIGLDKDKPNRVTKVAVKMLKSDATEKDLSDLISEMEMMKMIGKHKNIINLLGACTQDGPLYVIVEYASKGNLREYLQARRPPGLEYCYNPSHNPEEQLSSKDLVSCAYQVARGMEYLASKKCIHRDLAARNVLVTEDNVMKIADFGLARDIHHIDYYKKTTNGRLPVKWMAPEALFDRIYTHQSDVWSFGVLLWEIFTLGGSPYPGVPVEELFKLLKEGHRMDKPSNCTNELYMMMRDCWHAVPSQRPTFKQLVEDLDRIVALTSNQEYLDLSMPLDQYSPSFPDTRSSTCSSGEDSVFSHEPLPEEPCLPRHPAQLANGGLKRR
Chain of FGFR-4 (P22455 22-802): as the sequence (P22455 22-802) above

On to `CCN1CCN(c2ccc(Nc3cc(N(C)C(=O)Nc4c(Cl)c(OC)cc(OC)c4Cl)ncn3)cc2)CC1` [BGJ398, reference compound], for which the “tumor volume compared with vehicle group” value in the series with Hep3B xenograft tumors (20 mg/kg PO QD, entire study) was “significant difference in tumor volume between BGJ398 (20 mg/kg PO QD) and vehicle groups was not observed”. Also, the “induction of apoptosis (Caspase activity)” value in the series with Hep3B cells was “induction of apoptosis, although at a higher concentration”.
`C=CC(=O)N(C)c1ncc2nc(-c3cc(OC)cc(OC)c3)c(=O)n(C)c2n1` [COMPOUND 4]: at wild type FGFR-4, the IC50 was 100 to 1000 nM; the “Ratio FGFR1/FGFR4” value is “B (the ratio is ≧200 and <500)”. Also, at wild type FGFR-1, the half-maximal inhibitory concentration (IC50) was greater than 1000 nM.
For `C=CC(=O)N(C)c1ncc2cc(-c3c(Cl)c(OC)cc(OC)c3Cl)cnc2n1` [COMPOUND 8], the “Ratio FGFR1/FGFR4” value at wild type FGFR-4 was “E (the ratio is ≧10 and <50)”. Also, the IC50 at wild type FGFR-1 was in the range of 100 to 1000 nM.
`C=CC(=O)N(C)c1ncc2cc(-c3c(Cl)c(OC)cc(OC)c3Cl)c(=O)n(C)c2n1` [COMPOUND 12]: the “Ratio FGFR1/FGFR4” value at wild type FGFR-4 was “D (the ratio is ≧50 and <100)”. Also, the IC50 on wild type FGFR-1 lay within 10 to 100 nM.
As to `C=CC(=O)N(C)c1ncc2c(n1)N(C)C(=O)N(c1c(Cl)c(OC)cc(OC)c1Cl)C2` [COMPOUND 14], the concentration for half-maximal inhibition (IC50) at wild type FGFR-4 fell in the range of 10 to 100 nM; at wild type FGFR-1 it was 100 to 1000 nM.
`C=CC(=O)Nc1ccccc1Nc1nccc(N2CCN(C(=O)Nc3ccc(C#N)cc3)CC2)n1` [COMPOUND 23]: at wild type FGFR-4, the IC50 was in the range of 100 to 1000 nM and the “Ratio FGFR1/FGFR4” value was “A (the ratio is >500)”. The IC50 at wild type FGFR-1 is greater than 1000 nM.
Take `C=CC(=O)Nc1cccc(C)c1Nc1ncc2cc(-c3c(Cl)c(OC)cc(OC)c3Cl)ccc2n1` [COMPOUND 25, N-(2-((6-(2,6-dichloro-3,5-dimethoxyphenyl)quinazolin-2-yl)amino)-3-methylphenyl)acrylamide]: the “tolerability (body weight change)” value in series [1] was “well tolerated”. For the same molecule, the values for the tumor regression result in the series with Hep3B xenograft tumors (100 mg/kg PO BID) and with Hep3B xenograft tumors (300 mg/kg PO BID) were “regressed” and “almost disappeared”, respectively. Moreover, the “tumor volume compared with vehicle group” value is recorded as “Statistically significant reduction of tumor volumes” in the series with Hep3B xenograft tumors (100 mg/kg PO BID, Day 4 to Day 19) and “Statistically significant reduction of tumor volumes” with Hep3B xenograft tumors (300 mg/kg PO BID, Day 4 to Day 19). Also, at wild type FGFR-1, the IC50 lay within 100 to 1000 nM. The “induction of apoptosis (Caspase activity)” value with Hep3B cells is recorded as “potent induction of apoptosis”.
Consider `C=CC(=O)Nc1cccc(F)c1Nc1ncc2cc(-c3c(Cl)c(OC)cc(OC)c3Cl)ccc2n1` [COMPOUND 27], for which the “Ratio FGFR1/FGFR4” value on wild type FGFR-4 was “C (the ratio is ≧100 and <200)”. Further, the IC50 on wild type FGFR-1 lay in the range of 10 to 100 nM.
In the case of `C=CC(=O)Nc1ccccc1Nc1cc2c(cn1)cc(-c1c(Cl)c(OC)cc(OC)c1Cl)c(=O)n2C` [COMPOUND 31], at wild type FGFR-4, the “Ratio FGFR1/FGFR4” value was “B (the ratio is ≧200 and <500)”. Further, the IC50 on wild type FGFR-1 lay within 10 to 100 nM.
On to `C=CC(=O)Nc1ccc(F)c(F)c1Nc1ncc2cc(-c3c(Cl)c(OC)cc(OC)c3Cl)ccc2n1` [COMPOUND 37], for which the “Ratio FGFR1/FGFR4” value on wild type FGFR-4 was “C (the ratio is ≧100 and <200)”. For the same molecule, the IC50 on wild type FGFR-1 lay in the range of 100 to 1000 nM.
In the case of `C=CC(=O)Nc1ccccc1-c1ccn2c(-c3cc(NC(=O)NCC(F)(F)F)cc(OC(C)C)c3)cnc2c1` [COMPOUND 38, N-(2-(3-(3-isopropoxy-5-(3-(2,2,2-trifluoroethyl)ureido)phenyl)imidazo[1,2-a]pyridin-7-yl)phenyl)acrylamide], at wild type FGFR-4, the IC50 lay within 100 to 1000 nM; the “Ratio FGFR1/FGFR4” value was “E (the ratio is ≧10 and <50)”. In addition, the half-maximal inhibitory concentration (IC50) on wild type FGFR-1 is greater than 1000 nM.
Turning to `C=CC(=O)Nc1cccc(F)c1Nc1cc2c(cn1)cc(-c1c(Cl)c(OC)cc(OC)c1Cl)c(=O)n2C` [COMPOUND 46], the “Ratio FGFR1/FGFR4” value on wild type FGFR-4 was “E (the ratio is ≧10 and <50)”. Also, on wild type FGFR-1, the IC50 lay within 100 to 1000 nM.
For the molecule `C=CC(=O)Nc1cccc(F)c1Nc1ncc2cc(-c3c(Cl)c(OC)cc(OC)c3Cl)cc(OC)c2n1` [COMPOUND 47], on wild type FGFR-4, the “Ratio FGFR1/FGFR4” value is “B (the ratio is ≧200 and <500)”. Moreover, the IC50 on wild type FGFR-1 is 10 to 100 nM.
Regarding `C=CC(=O)Nc1cccc(C)c1Nc1ncc2c(n1)N(C)C(=O)N(c1c(Cl)c(OC)cc(OC)c1Cl)C2` [COMPOUND 48, N-(2-((6-(2,6-dichloro-3,5-dimethoxyphenyl)-8-methyl-7-oxo-5,6,7,8-tetrahydropyrimido[4,5-d]pyrimidin-2-yl)amino)-3-methylphenyl)acrylamide], the “Ratio FGFR1/FGFR4” value on wild type FGFR-4 is “E (the ratio is ≧10 and <50)”. In addition, the IC50 on wild type FGFR-1 lay in the range of 100 to 1000 nM.
As for `C=CS(=O)(=O)Nc1cccc(C)c1Nc1ncc2cc(-c3c(Cl)c(OC)cc(OC)c3Cl)ccc2n1` [COMPOUND 49A], on wild type FGFR-4, the IC50 was in the range of 10 to 100 nM; the “Ratio FGFR1/FGFR4” value was “E (the ratio is ≧10 and <50)”. The IC50 at wild type FGFR-1 lay within 100 to 1000 nM.
As to `C=CC(=O)Nc1cccc(C(F)(F)F)c1Nc1ncc2cc(-c3c(Cl)c(OC)cc(OC)c3Cl)ccc2n1` [COMPOUND 51], on wild type FGFR-4, the IC50 is 10 to 100 nM and the “Ratio FGFR1/FGFR4” value is “F (the ratio of [IC50 for FGFR1]/[IC50 for FGFR4] is less than 10)”. For the same molecule, the IC50 on wild type FGFR-1 is greater than 1000 nM.
On to `C=CC(=O)N(CCCCN(CC)CC)c1ncc2cc(-c3cc(OC)cc(OC)c3)c(NC(=O)NC(C)(C)C)nc2n1` [COMPOUND 52, N-(7-(3-(tert-butyl)ureido)-6-(3,5-dimethoxyphenyl)pyrido[2,3-d]pyrimidin-2-yl)-N-(4-(diethylamino)butyl)acrylamide], for which, at wild type FGFR-4, the “Ratio FGFR1/FGFR4” value is “C (the ratio is ≧100 and <200)”. Further, the “binding site in crystal structure” value at FGFR-4 is given as “binds to the cysteine at residue 552 of FGFR-4”. Also, on wild type FGFR-1, the IC50 fell in the range of 10 to 100 nM.
For the molecule `C=CC(=O)Nc1cc(N2CCOCC2)cc(C)c1Nc1ncc2cc(-c3c(Cl)c(OC)cc(OC)c3Cl)ccc2n1` [COMPOUND 53], at wild type FGFR-4, the “Ratio FGFR1/FGFR4” value is “C (the ratio is ≧100 and <200)”. Besides, the half-inhibitory concentration (IC50) on wild type FGFR-1 was 100 to 1000 nM.
Take `CNC(=O)c1cc(Oc2ccc(NC(=O)Nc3ccc(Cl)c(C(F)(F)F)c3)cc2)ccn1` [Sorafenib, reference compound]: the “tumor volume compared with vehicle group” value in the series with Hep3B xenograft tumors (30 mg/kg PO QD, Day 4 to Day 19) is “Statistically significant reduction of tumor volumes”.
